Assay results published in PMC4947907, “Lupin Peptides Modulate the Protein-Protein Interaction of PCSK9 with the Low Density Lipoprotein Receptor in HepG2 Cells” (Scientific Reports, 2016).
Blank lines part the entries; values can stand above or below the molecule they belong to. No end group written: not given here.

How the values were obtained:
[1] = target: T1, PCSK9-LDLR interaction (recombinant His-tagged PCSK9 / recombinant LDLR-AB domain) (Homo sapiens, UniProt Q8NBP7); assay: In vitro PCSK9-LDLR binding assay (solid-phase, CycLex); details: synthetic peptide, absorbance 450 nm versus vehicle, average ± SEM of three independent experiments in duplicate
T1 construct: purchased CycLex Co., Nagano, Japan
Experimental: In vitro experiments were performed using a solid-phase binding assay between recombinant His-tagged PCSK9 and recombinant LDLR-AB domain.
The commercial assay provides a plate pre-coated with a recombinant LDLR-AB domain, which is the PCSK9 binding site. For screening direct inhibitors of the PCSK9-LDLR interaction, lupin peptides were added to the proper amount of His-tagged PCSK9 in each well coated with LDLR-AB domain. Biotinylated anti-His-tag monoclonal antibody specifically reacted with recombinant His-tagged PCSK9 trapped with LDLR-AB domain immobilized on the microplate surface. The inhibitory effects were analyzed measuring the amount of His-tagged PCSK9 on the well. In particular, the inhibitory effect, calculated as % PCSK9-LDLR binding inhibition, determines a reduction of absorbance measured at 450 nm using the Synergy H1 fluorescent plate reader from Biotek versus vehicle control. Data points represent averages ± SEM of three independent experiments in duplicate. ***p < 0.0001 **p < 0.001 versus C.
The employed assay provides a plate pre-coated with a recombinant LDLR-AB domain, which is the PCSK9 binding site. For screening, the peptides were added to proper amount of His-tagged PCSK9 in each well coated with LDLR-AB domain. Biotinylated anti-His-tag monoclonal antibody specifically reacts with recombinant His-tagged PCSK9 trapped with LDLR-AB domain immobilized on the microplate surface. […] Data points represent averages ± SEM of three independent experiments in duplicate. *p < 0.05 **P < 0.001 versus C.
P-tot peptides (1.0 and 2.5 μg/μl), T-tot peptides (0.5 and 1.0 μg/μl), P-abs (12.5 ng/μl) and T-abs peptides (16.0 ng/μl) were tested using the in vitro PCSK9-LDLR binding assay (CycLex Co., Nagano, Japan) following the manufacture instructions. […] The reaction was stopped with 2.0 N sulfuric acid and the absorbance at 450 nm was measured using the Synergy H1 fluorescent plate reader (Biotek, Bad Friedrichshall, Germany).
The absorbance at 450 nm was measured using the Synergy H1 fluorescent plate reader (Biotek, Bad Friedrichshall, Germany).

[2] = tested on: PCSK9-LDLR interaction; details: ref 23 (Zhang and coworkers); read-out: IC50, PCSK9-LDLR inhibition; cited from earlier work
Text: P5 is thus one of the shortest peptides ever described in literature endowed with this specific activity.

[3] = tested on: Caco-2 cells; assay: Absorption in differentiated Caco-2 cells grown in two-compartment system; peptides identified/quantified in basolateral solution; assay type: in vitro ADME, human; details: Caco-2 AP to BL, 4 h
Text: Lupin protein consumption provides some health benefits in the area of hypercholesterolemia prevention. Studies in animal models[31][32] and in the clinics[33][34] have shown that the protein itself is a main hypocholesterolemic agent. […] Another investigation in human Caco-2 cells has provided evidence that at least some of these peptic and tryptic peptides may be absorbed in the small intestine, since they are transferred from the apical (AP) to the basolateral (BL) compartment in differentiated Caco-2 cells grown in a two-compartment system.
Precisely, Caco-2 cells have been incubated for 4 h in the AP chamber with 500 μl of a 1.0 μg/μl solution of P-tot or T-tot peptides and, at the end of treatment, BL solutions (700 μl) have been collected and absorbed peptic and tryptic peptides identified by HPLC-Chip ESI-MS/MS[37]. The BL solutions were then dried and diluted to 100 μl to obtain the solutions P-abs and T-abs at the concentration of 0.25 and 0.32 μg/μl, respectively. Both solutions were used for the present experiments.
The peptic (P-tot) and tryptic (T-tot) hydrolyzates from lupin protein are the same used in a previous paper, in which their capability to modulate cholesterol metabolism in HepG2 cells was investigated. […]

[4] = target: recombinant His-tagged PCSK9 wild type (proprotein convertase subtilisin/kexin type 9) (human, UniProt Q8NBP7 153-692, Limits of the kit protein are not printed. Taken as secreted, autocleaved PCSK9: prodomain 31-152 non-covalently bound to mature chain 153-692, from UniProt features. His tag omitted.); assay: ELISA; CycLex in vitro PCSK9-LDLR binding assay: plate pre-coated with LDLR-AB domain; His-tagged PCSK9 added with vehicle or synthetic peptides T9 (32-320 uM) or P5 (0.001-100 uM), 2 h at room temperature; bound PCSK9 detected with biotinylated anti-His-tag antibody, absorbance at 450 nm; details: both partners purified
recombinant His-tagged PCSK9 wild type (proprotein convertase subtilisin/kexin type 9), sequence (Q8NBP7 153-692): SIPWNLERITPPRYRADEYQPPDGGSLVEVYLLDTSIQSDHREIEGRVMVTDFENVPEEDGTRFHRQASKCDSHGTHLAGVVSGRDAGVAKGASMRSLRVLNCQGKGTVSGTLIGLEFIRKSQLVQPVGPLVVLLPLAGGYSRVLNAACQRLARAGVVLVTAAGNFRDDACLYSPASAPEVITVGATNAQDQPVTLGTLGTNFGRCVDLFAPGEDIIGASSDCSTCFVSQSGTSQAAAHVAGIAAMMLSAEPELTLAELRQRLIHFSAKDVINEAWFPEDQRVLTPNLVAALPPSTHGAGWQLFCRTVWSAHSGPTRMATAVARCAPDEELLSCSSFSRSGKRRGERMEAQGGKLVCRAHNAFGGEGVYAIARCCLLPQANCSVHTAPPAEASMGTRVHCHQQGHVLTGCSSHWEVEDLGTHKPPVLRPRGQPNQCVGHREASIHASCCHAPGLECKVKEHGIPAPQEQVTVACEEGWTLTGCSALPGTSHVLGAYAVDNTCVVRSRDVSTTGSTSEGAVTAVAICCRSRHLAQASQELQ

T1 sequence (Q8NBP7 153-692): as above
T1 sequence (Q8NBP7 31-152 partner limits assumed): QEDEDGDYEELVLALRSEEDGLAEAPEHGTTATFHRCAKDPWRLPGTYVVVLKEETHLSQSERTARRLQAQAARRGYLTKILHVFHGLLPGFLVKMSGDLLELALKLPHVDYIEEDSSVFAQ

Molecule: Ac-TVFTSWEEYLDWV-amide [Pep2-8]
IC50 [2]: 810 ± 80 nM

B1: P5 (peptide)
peptide: LILPKHSDAD
notes: peptic peptide of Lupinus albus β2-conglutin (beta-conglutin precursor); source: synthetic peptide (PRIMM, Milan), >95% pure by HPLC
IC50 [4]: 1600 nM

Second part, the molecule after the results:

inhibition at 32 µM ([1]; 32 μM): 19 ± 8.47%
inhibition at 160 µM ([1]; 160 μM): 33 ± 5.33%
inhibition at 320 µM ([1]; […] μM): 53 ± 1.02%
Molecule: CC[C@H](C)[C@H](NC(=O)[C@@H](NC(=O)CNC(=O)[C@H](CCC(=O)O)NC(=O)[C@H](CC(=O)O)NC(=O)[C@H](CCC(N)=O)NC(=O)[C@H](Cc1c[nH]cn1)NC(=O)[C@H](CO)NC(=O)[C@H](CCC(N)=O)NC(=O)[C@H](CCC(=O)O)NC(=O)[C@H](CCC(N)=O)NC(=O)CN)C(C)C)C(=O)N[C@H](C(=O)N[C@@H](CCCNC(=N)N)C(=O)O)C(C)C [Peptide T9]

P5 concentration in the P-abs solution ([3]; AP 500 μl of 1.0 μg/μl P-tot, BL solution (700 μl) dried and diluted to 100 μl, HPLC-MS/MS m/z 554.8 → 770.0, external calibration with synthetic standard, three injections): 28.64 ± 0.43 ng/µL
P5 share of total peptic peptides absorbed by Caco-2 cells ([3]; P-abs sample, HPLC-MS/MS): 11.5%
Molecule: LILPKHSDAD [Peptide P5]
